PubChem BioAssay (NCI)
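48-hour exposure; five concentrations; linearly interpolated endpoints. Abbreviation: GI50, concentration required for 50% inhibition of growth. TGI: total growth inhibition.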

Key:
Assay in all cases: NCI anticancer screen, dose series, 48 h
[1] = test system: 786-0 renal
[2] = test system: A498 renal
[3] = test system: A549 NSCLC
[4] = test system: ACHN renal
[5] = test system: BT-549 breast
[6] = test system: CAKI-1 renal
[7] = test system: CCRF-CEM leukemia
[8] = test system: COLO 205 colon
[9] = test system: DU-145 prostate
[10] = test system: EKVX NSCLC
[11] = test system: HCC-2998 colon
[12] = test system: HCT-116 colon
[13] = test system: HCT-15 colon
[14] = test system: HL-60(TB) leukemia
[15] = test system: HOP-62 NSCLC
[16] = test system: HOP-92 NSCLC
[17] = test system: HS 578T breast
[18] = test system: HT29 colon
[19] = test system: IGROV1 ovarian
[20] = test system: K-562 leukemia
[21] = test system: KM12 colon
[22] = test system: LOX IMVI melanoma
[23] = test system: M14 melanoma
[24] = test system: MALME-3M melanoma
[25] = test system: MCF7 breast
[26] = test system: MDA-MB-231 breast
[27] = test system: MDA-MB-435
[28] = test system: MOLT-4 leukemia
[29] = test system: NCI-H226 lung
[30] = test system: NCI-H23 lung
[31] = test system: NCI-H460 lung
[32] = test system: NCI-H522 lung
[33] = test system: NCI/ADR-RES ovarian
[34] = test system: OVCAR-4 ovarian
[35] = test system: OVCAR-5 ovarian
[36] = test system: OVCAR-8 ovarian
[37] = test system: PC-3 prostate
[38] = test system: RPMI-8226 leukemia
[39] = test system: RXF 393 renal
[40] = test system: SF-268 CNS
[41] = test system: SF-295 CNS
[42] = test system: SF-539 CNS
[43] = test system: SK-MEL-2 melanoma
[44] = test system: SK-MEL-28 melanoma
[45] = test system: SK-MEL-5 melanoma
[46] = test system: SK-OV-3 ovarian
[47] = test system: SN12C renal
[48] = test system: SNB-19 CNS
[49] = test system: SNB-75 CNS
[50] = test system: SR leukemia
[51] = test system: SW-620 colon
[52] = test system: T-47D breast
[53] = test system: TK-10 renal
[54] = test system: U251 CNS
[55] = test system: UACC-257 melanoma
[56] = test system: UACC-62 melanoma
[57] = test system: UO-31 renal

SMILES: NC(=O)n1c(=O)n(-c2cccc(C(F)(F)F)c2)c(=O)c2cc(-c3ccc(F)cc3F)ccc21
- GI50 [1]: 1.94 µM
- TGI [1]: 4.54 µM
- GI50 [2]: 0.512 µM
- TGI [2]: 1.93 µM
- GI50 [3]: 3.19 µM
- TGI [3]: 11.8 µM
- GI50 [4]: 2.42 µM
- TGI [4]: 10.1 µM
- GI50 [5]: 0.315 µM
- TGI [5]: 1.12 µM
- GI50 [6]: 1.9 µM
- TGI [6]: 6.38 µM
- GI50 [7]: 3.07 µM
- TGI [7]: 19 µM
- GI50 [8]: 3.35 µM
- TGI [8]: 10.6 µM
- GI50 [9]: 3.53 µM
- TGI [9]: 15.5 µM
- GI50 [10]: 2.83 µM
- TGI [10]: 9.59 µM
- GI50 [11]: 2.76 µM
- TGI [11]: 9.26 µM
- GI50 [12]: 0.559 µM
- TGI [12]: 1.98 µM
- GI50 [13]: 0.79 µM
- TGI [13]: 2.68 µM
- GI50 [14]: 1.27 µM
- TGI [14]: 7.52 µM
- GI50 [15]: 1.96 µM
- TGI [15]: 4.79 µM
- GI50 [16]: 0.149 µM
- TGI [16]: 0.568 µM
- GI50 [17]: 2.12 µM
- TGI [17]: 7.06 µM
- GI50 [18]: 4.38 µM
- TGI [18]: 18.8 µM
- GI50 [19]: 2.12 µM
- TGI [19]: 15.1 µM
- GI50 [20]: 0.771 µM
- TGI [20]: 80.3 µM
- GI50 [21]: 2.55 µM
- TGI [21]: 7.15 µM
- GI50 [22]: 1.68 µM
- TGI [22]: 3.76 µM
- GI50 [23]: 1.34 µM
- TGI [23]: 3.8 µM
- GI50 [24]: 1.44 µM
- TGI [24]: 5.3 µM
- GI50 [25]: 1.74 µM
- TGI [25]: 6.47 µM
- GI50 [26]: 2.12 µM
- TGI [26]: 6.86 µM
- GI50 [27]: 1.89 µM
- TGI [27]: 7.33 µM
- GI50 [28]: 2.22 µM
- TGI [28]: 6.16 µM
- GI50 [29]: 1.31 µM
- TGI [29]: 3.99 µM
- GI50 [30]: 1.23 µM
- TGI [30]: 4.63 µM
- GI50 [31]: 1.39 µM
- TGI [31]: 6.8 µM
- GI50 [32]: 0.493 µM
- TGI [32]: 3.74 µM
- GI50 [33]: 2.06 µM
- TGI [33]: 8.87 µM
- GI50 [34]: 2.81 µM
- TGI [34]: 16.5 µM
- GI50 [35]: 3.38 µM
- TGI [35]: 14.4 µM
- GI50 [36]: 1.84 µM
- TGI [36]: 9.65 µM
- GI50 [37]: 1.07 µM
- TGI [37]: 5.73 µM
- GI50 [38]: 0.99 µM
- TGI [38]: 5.12 µM
- GI50 [39]: 1.23 µM
- TGI [39]: 3.13 µM
- GI50 [40]: 2.57 µM
- TGI [40]: 13 µM
- GI50 [41]: 1.68 µM
- TGI [41]: 3.51 µM
- GI50 [42]: 2.11 µM
- TGI [42]: 8.5 µM
- GI50 [43]: 0.75 µM
- TGI [43]: 2.82 µM
- GI50 [44]: 1.39 µM
- TGI [44]: 8.55 µM
- GI50 [45]: 0.338 µM
- TGI [45]: 1.21 µM
- GI50 [46]: 1.6 µM
- TGI [46]: 4.42 µM
- GI50 [47]: 1.27 µM
- TGI [47]: 7.24 µM
- GI50 [48]: 1.51 µM
- TGI [48]: 12.7 µM
- GI50 [49]: 1.81 µM
- TGI [49]: 7.47 µM
- GI50 [50]: 0.58 µM
- TGI [50]: 4.6 µM
- GI50 [51]: 2.65 µM
- TGI [51]: 10.4 µM
- GI50 [52]: 1.61 µM
- TGI [52]: 6.28 µM
- GI50 [53]: 4.04 µM
- TGI [53]: 9.74 µM
- GI50 [54]: 2.01 µM
- TGI [54]: 11.1 µM
- GI50 [55]: 1.06 µM
- TGI [55]: 4.54 µM
- GI50 [56]: 0.363 µM
- TGI [56]: 1.69 µM
- GI50 [57]: 2.19 µM
- TGI [57]: 8.44 µM
